Source: article PMC12501029, “Discovery of a CNS active GSK3 degrader using orthogonally reactive linker screening” (Nature Communications, 2025)
“Also recorded” adds a separate entry of the source.

Experiments:
[1] = system: HEK293 cells phosphoproteome; test: Phosphoproteomics in HEK293 cells; type: cell-based, human; design: scale not given here; details: vs DMSO; phosphosite abundance difference; MOESM9
Procedure: IMAC beads were prepared from Ni-NTA (nitrilotriacetic acid) superflow agarose beads. The nickel was stripped with 100 mM EDTA and incubated in an aqueous solution of 10 mM iron (III) chloride (FeCl3). Dried peptide fractions were reconstituted to a concentration of 0.5 μg/μL in 80% ACN/0.1% TFA. Peptide mixtures were enriched for phosphorylated peptides with 5 μL IMAC beads for 30 min with end-to-end rotation.
Enriched IMAC beads were loaded on Empore C18 silica-packed stage tips. Stage tips were equilibrated with acetonitrile followed by 50% ACN/0.1% FA then 1% FA. The beads with enriched peptides were loaded onto C18 stage tips and washed with 80% ACN/0.1% TFA. Phosphorylated peptides were eluted from IMAC beads with 500 mM dibasic sodium phosphate, pH 7.0. These peptides were washed with 1% FA before elution using 50% acetonitrile in 0.1% FA. The peptides were then dried by SpeedVac and stored at −20 °C until mass spectrometry analysis. The dried phosphopeptides were reconstituted in 0.1% formic acid and analyzed on an Orbitrap Ascend mass spectrometer coupled to a Thermo Fisher Scientific Vanquish Neo UHPLC. […] The total run time was set to 155 min. A survey full scan MS (from m/z 350–1500) was acquired in the Orbitrap at a resolution of 120,000 at 200 m/z. The most intense ions with charge state ≥2 were isolated and fragmented using higher collision dissociation (HCD) fragmentation, with 30% normalised collision energy, and detected at a mass resolution of 50,000 at 200 m/z. The isolation window was set at 1.6. The phosphoproteomics raw data were searched using SEQUEST HT search engines with Proteome Discoverer 3.0 (Thermo Fisher Scientific). The following parameters were used for searches: Precursor mass tolerance 10 ppm, fragment mass tolerance 0.02, enzyme: trypsin, […], fixed modification: carbamidomethylation of cysteine residues and TMT of lysine and N-terminal, dynamic modification: oxidation of methionine and phosphorylation of serine, threonine and tyrosine. The data were filtered for 1% PSM and peptide level. A two-tailed t-test with 250 randomisations was performed in Perseus software (v1.6.15.0) to assess statistical significance between groups. The resulting data were visualised as a volcano plot using GraphPad Prism (v10.1.2).

GSK3β = biological target: T1, GSK3β (Mus musculus, UniProt Q9WV60); test: KH1 (24) intravenous PK/PD study: GSK3β abundance in liver and brain (immunoblot); type: in vivo, female Balb/c mice; details: single 5 mg/kg i.v., 4 h, listed as KH1 (24)
T1 construct: measured KH1 (24) levels in plasma and brain at 4 h, as well as GSK3β abundance in liver and brain; tissue Charles River Laboratories, UK; host or cells: liver and brain of female Balb/c mice
Procedure: A fraction of frozen brain and liver samples from control (CNT) and compound KH1 (24) treated animals were-transferred into Precellys 2 mL ceramic bead tubes containing 1 mL SDS lysis buffer (50 mM Tris-HCl pH 7.4, 150 mM NaCl, 1 mM EGTA, 270 mM sucrose, 1% (v/v) Triton-X100) supplemented with complete EDTA-free protease inhibitor cocktail (Roche) and PhosSTOP phosphatase inhibitor tablets (Roche) and placed immediately on ice. Then samples were placed in Precellys Evolution tissue homogeniser (Bertin Technologies) and tissues were lysed at 0 °C for 3 × 30 s of cycles at 6800 rpm, with 30 s pause in between cycles. Samples were centrifugated at 4 °C, 2000 × g for 60 s to get rid of bubbles and supernatant was transferred into new tubes. Lysates were cleared via centrifugation at 16,000 × g, 4 °C for 20 min. Protein concentration was determined by BCA assay (Thermo Scientific) and immunoblotting performed as previously described above. Immunoblots were quantified using ImageLab (Bio-Rad) and band intensities were normalised to loading controls; anti-GAPDH or Ponceau S staining and fold changes for protein of interest were plotted.
For the PK/PD study for KH1 (24), three female Balb/c mice were given a bolus intravenous injection at a dose level of 5 mg/kg (5 mL/kg). […] The concentration of KH1 (24) in whole blood and brain tissue was determined via UPLC-MS/MS.

T1 sequence (Q9WV60 whole entry): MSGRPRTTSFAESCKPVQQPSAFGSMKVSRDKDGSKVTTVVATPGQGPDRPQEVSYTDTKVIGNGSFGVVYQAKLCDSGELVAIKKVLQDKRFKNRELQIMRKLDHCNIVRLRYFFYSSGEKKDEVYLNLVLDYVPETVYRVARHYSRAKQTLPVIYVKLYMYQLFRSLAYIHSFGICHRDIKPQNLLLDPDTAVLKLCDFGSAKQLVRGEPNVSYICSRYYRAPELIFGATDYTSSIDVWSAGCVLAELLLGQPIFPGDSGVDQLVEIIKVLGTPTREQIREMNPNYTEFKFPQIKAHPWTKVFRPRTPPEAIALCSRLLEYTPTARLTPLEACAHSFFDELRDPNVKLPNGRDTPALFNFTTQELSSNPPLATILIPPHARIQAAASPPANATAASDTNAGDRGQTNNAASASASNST

## Cn1nc(N2CCC(=O)NC2=O)c2ccc(CN3CCN(Cc4ccc(-c5cn(-c6ccc(-c7cn8nccc(C(=O)Nc9cnccc9N9CCOCC9)c8n7)cc6)nn5)nc4)CC3)cc21 [compound 24]
[1]
  Difference, Q5PRF9 1xPhospho [S592(100)] SAMD4B: 0.2452
  Difference, Q8NEM7 1xPhospho [S437(100)] SUPT20H: 0.1561
  Difference, Q96KQ7 1xPhospho [S140(100)] EHMT2: 0.2159
  Difference, Q15398 1xPhospho [S725(100)] DLGAP5: -0.5208
  Difference, Q15911 1xPhospho [S426(100)] ZFHX3: -0.09567
GSK3β; p < 0.0001 vs control
  GSK3β abundance in liver: almost complete removal of GSK3β; also recorded: almost completely remove GSK3β
GSK3β; p = 0.0159 vs control
  GSK3β abundance in brain: significant degradation of GSK3β; also recorded: partial degradation
